Test results taken from patent US8088920B2, “3-trifluoromethyl-pyrazine-2-carboxylic acid amide derivatives as HDL-cholesterol raising agents” (Hoffmann-La Roche Inc., priority 2008, dated 2012).

test system: THP-1 cells; test: Cholesterol efflux assay; assay type: cell-based; details: Homo sapiens; THP-1 cells differentiated to macrophages, [3H]cholesterol loaded, efflux induced by 10 μg/ml Apolipoprotein AI, 6 hrs; percent stimulation over DMSO
Procedure: The ability of compounds of the invention to stimulate cholesterol efflux is determined in replicate cultures of THP-1 cells in 96-well microplates. Cells are plated at an initial density of 150,000 cells/well and differentiated to macrophages with the addition of PMA (100 ng/ml) for 72 hrs in 10% fetal bovine serum, 3 μl/L of b-mercaptoethanol, RPMI-1640 medium. Cells are washed once with RPMI-1640 and loaded with RPMI-1640 medium containing 2% FCS, 50 μg/ml acetylated LDL, and 10 μCi/ml [^3H]cholesterol for 48 hours at 37° C. After loading the cells are washed once with RPMI-1640 and incubated with the compound of interest from DMSO solutions for an additional 24 hrs in RPMI-1640 medium containing 1 mg/ml fatty acid free-bovine serum albumin (BSA). Upon incubation cells are washed once, and cholesterol efflux is induced by the addition of 10 μg/ml Apolipoprotein AI in RPMI-1640 containing 1 mg/ml BSA and in the presence of the compound for an additional 6 hrs. Following incubation radioactivity is determined in the supernatants and cholesterol efflux is expressed as the percent stimulation over replicate cultures treated only with DMSO. Sigmoidal curves were fitted using the XLfit3 program (ID Business Solutions Ltd. UK) and EC50 values were determined.

Row | EC50 | Compound
1 | 610 nM | O=C(N[C@@H]1CCCC[C@H]1O)c1nc(-c2ccc(Cl)cc2)c(OCC2CC2)nc1C(F)(F)F [Example 1, 6-(4-chloro-phenyl)-5-cyclopropylmethoxy-3-trifluoromethyl-pyrazine-2-carboxylic acid ((1R,2R)-2-hydroxy-cyclohexyl)-amide]
2 | 570 nM | CC(O)(CNC(=O)c1nc(-c2ccc(Cl)cc2)c(OCC(F)(F)F)nc1C(F)(F)F)C1CC1 (stereo not drawn) [Example 2, 6-(4-chloro-phenyl)-5-(2,2,2-trifluoro-ethoxy)-3-trifluoromethyl-pyrazine-2-carboxylic acid (2-cyclopropyl-2-hydroxy-propyl)-amide]

Row | Compound | EC50
3 | CC(O)(CNC(=O)c1nc(-c2ccc(Cl)cc2)c(OCC2CC2)nc1C(F)(F)F)C1CC1 (stereo not drawn) [Example 3, 6-(4-chloro-phenyl)-5-cyclopropylmethoxy-3-trifluoromethyl-pyrazine-2-carboxylic acid (2-cyclopropyl-2-hydroxy-propyl)-amide] | 720 nM
